Assay results from ChEMBL document CHEMBL1201862, “PubChem BioAssay data set” (2004).
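In this assay, cells in 96-well plates receive the compound at five concentrations for 48 hours. Endpoints are linearly interpolated between the surrounding concentrations. GI50 = concentration required for 50% inhibition of growth.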 Calls of active or inactive are those of the source. No stated cut-off is given here; in the data, active = GI50 up to about 1.1 µM and inactive = higher.

Tests used:
Experiment in all cases: inhibition of tumour cell growth, NCI panel, 48 h
[1] = test system: DLD-1
[2] = test system: DMS-273
[3] = test system: SNB-78
[4] = test system: XF498
[5] = test system: LXFL 529
[6] = test system: HOP-18
[7] = test system: KM-20L2
[8] = test system: DMS-114
[9] = test system: RXF 631

| Structure (SMILES) | GI50 [1] | GI50 [2] | GI50 [3] | GI50 [4] | GI50 [5] | GI50 [6] | GI50 [7] | GI50 [8] | GI50 [9] |
| --- | --- | --- | --- | --- | --- | --- | --- | --- | --- |
| O=[N+]([O-])c1ccc(-c2ccc(-c3csc(Nc4ccccc4)n3)o2)cc1 | 23.3 µM (inactive) | 23 µM (inactive) | 8.17 µM (inactive) | 18.4 µM (inactive) | 18.6 µM (inactive) | 15.8 µM (inactive) | 21 µM (inactive) | 25.7 µM (inactive) | – |
| COC(=O)/C=C1\CCC2[C@@H](C(=O)CC3[C@]2(C)CCC[C@@]3(C)C(=O)OC)C1C (stereo partly specified) | 29.2 µM (inactive) | 22 µM (inactive) | 29.2 µM (inactive) | 13.7 µM (inactive) | 8.73 µM (inactive) | 29.4 µM (inactive) | 29.3 µM (inactive) | 16.1 µM (inactive) | 25.4 µM (inactive) |
| O=C(Nc1ccc(Cl)c(C(F)(F)F)c1)C(=O)C(C(=O)/C=C/c1ccccc1)C1OC(=O)c2ccccc21 (stereo unspecified) | > 100 µM (inactive) | > 100 µM (inactive) | 64 µM (inactive) | > 100 µM (inactive) | 57.4 µM (inactive) | > 100 µM (inactive) | > 100 µM (inactive) | 66.5 µM (inactive) | – |
| COC(=O)NN=C1C(C)(C)C(=O)C1(C)C | > 100 µM (inactive) | > 100 µM (inactive) | > 100 µM (inactive) | > 100 µM (inactive) | > 100 µM (inactive) | – | > 100 µM (inactive) | – | > 100 µM (inactive) |
| CC1(C)C(=O)/C=C\C(=O)C(C)(C)C(=O)/C=C\C(=O)C(C)(C)C(=O)/C=C\C(=O)C(C)(C)C(=O)/C=C\C1=O | 14.9 µM (inactive) | 16.8 µM (inactive) | 17.4 µM (inactive) | 30.3 µM (inactive) | 7.28 µM (inactive) | 22.3 µM (inactive) | 26.6 µM (inactive) | – | – |
| O=C1C2Nc3ccccc3SC2C(=O)N1c1ccccc1C(F)(F)F (stereo unspecified) | 27.3 µM (inactive) | – | 15.2 µM (inactive) | 19.6 µM (inactive) | 33.7 µM (inactive) | 26.4 µM (inactive) | – | 40.7 µM (inactive) | – |
| CCN(CC)CCC(=O)O[C@H]1CC[C@H](CC(C)[C@H]2CC(=O)C(C)C=C(C)[C@H](OC(=O)CCN(CC)CC)C(OC)C(=O)[C@@H](C)CC(C)/C=C/C=C/C=C(C)C(OC)CC3CC[C@H](C)[C@](O)(O3)C(=O)C(=O)N3CCCCC3C(=O)O2)CC1OC (stereo partly specified) | – | 0.361 µM (active) | < 0.01 µM (active) | – | < 0.01 µM (active) | – | 1.6 µM (inactive) | – | 0.406 µM (active) |
| O/N=N/c1cnccn1 | > 1250 µM (inactive) | > 1250 µM (inactive) | > 918 µM (inactive) | – | – | > 1250 µM (inactive) | > 1250 µM (inactive) | 929 µM (inactive) | – |
| [O-]c1c2c(nn1-c1ccc(Cl)cc1)c1ccccc1c[n+]2Cc1ccccc1 | 81.5 µM (inactive) | > 100 µM (inactive) | > 100 µM (inactive) | 35 µM (inactive) | > 100 µM (inactive) | > 100 µM (inactive) | > 100 µM (inactive) | > 100 µM (inactive) | – |
| N=C(N)N/N=C(/c1nc2ccc([N+](=O)[O-])cc2[nH]c1=O)C(O)c1ccc([N+](=O)[O-])cc1 (stereo unspecified) | 87.3 µM (inactive) | 55.7 µM (inactive) | > 100 µM (inactive) | 40 µM (inactive) | 30.8 µM (inactive) | – | 18 µM (inactive) | 8.28 µM (inactive) | > 100 µM (inactive) |
| O=C1[C@@H]2C(c3ccccc3[N+](=O)[O-])=[N+](c3ccccc3)O[C@@H]2C(=O)N1c1ccc(Cc2ccc(N3C(=O)[C@H]4C(c5ccccc5[N+](=O)[O-])=[N+](c5ccccc5)O[C@H]4C3=O)cc2)cc1 | > 100 µM (inactive) | > 100 µM (inactive) | > 100 µM (inactive) | – | 94.6 µM (inactive) | 85.9 µM (inactive) | > 100 µM (inactive) | > 100 µM (inactive) | – |
| COc1cccc(NC(=O)CC(=O)N2NC(c3ccccc3)C(/N=N/c3cccc(C(=O)O)c3)C2=O)c1 (stereo unspecified) | > 100 µM (inactive) | – | > 100 µM (inactive) | > 100 µM (inactive) | 85.1 µM (inactive) | < 0.01 µM (active) | > 100 µM (inactive) | > 100 µM (inactive) | – |
| C/C(=N/NC(N)=S)C(CN1CCOCC1)C(C1=C(O)c2ccccc2OC1)c1ccccc1 (stereo unspecified) | > 100 µM (inactive) | – | > 100 µM (inactive) | > 100 µM (inactive) | > 100 µM (inactive) | > 100 µM (inactive) | > 100 µM (inactive) | – | – |
| CC(=O)OC1[C@H]2c3cc4c(cc3CN3CCC(C[C@@H]1OC(C)=O)C23)OCO4 (stereo partly specified) | > 75 µM (inactive) | > 75 µM (inactive) | > 75 µM (inactive) | – | > 75 µM (inactive) | – | > 75 µM (inactive) | > 75 µM (inactive) | – |
| COc1ccc(NCC#N)cc1 | > 100 µM (inactive) | > 100 µM (inactive) | > 100 µM (inactive) | > 100 µM (inactive) | > 100 µM (inactive) | > 100 µM (inactive) | > 100 µM (inactive) | > 100 µM (inactive) | > 100 µM (inactive) |
| O=[N+]([O-])c1ccc(Cc2nc3ccccc3s2)cc1 | 41.6 µM (inactive) | 82.4 µM (inactive) | > 100 µM (inactive) | > 100 µM (inactive) | 61 µM (inactive) | > 100 µM (inactive) | > 100 µM (inactive) | 39.5 µM (inactive) | – |
| COc1cc([C@@H]2c3cc4c(cc3[C@@H](NC(=O)c3ccc(C#N)cc3)C3COC(=O)[C@@H]32)OCO4)cc(OC)c1O (stereo partly specified) | 1.64 µM (inactive) | 0.0276 µM (active) | 6.03 µM (inactive) | – | 4.61 µM (inactive) | 55.1 µM (inactive) | 0.785 µM (active) | 0.315 µM (active) | – |
| CSC(C1c2ccccc2N(C)c2[nH]c(=O)n(C)c(=O)c21)S(=O)(=O)c1ccc(C)cc1 (stereo unspecified) | > 100 µM (inactive) | 43.5 µM (inactive) | > 100 µM (inactive) | > 100 µM (inactive) | 56.4 µM (inactive) | > 100 µM (inactive) | – | > 100 µM (inactive) | – |
| Cn1cc2c(n1)c(N/N=C/c1ccccc1)nn1nnnc21 | > 100 µM (inactive) | > 100 µM (inactive) | > 100 µM (inactive) | > 100 µM (inactive) | > 100 µM (inactive) | > 100 µM (inactive) | > 100 µM (inactive) | > 100 µM (inactive) | > 100 µM (inactive) |
| CCOC(=O)/C(=C\c1cccs1)P(=O)(OCC)OCC | 21.2 µM (inactive) | 34.6 µM (inactive) | 49.3 µM (inactive) | – | 18.6 µM (inactive) | 31.3 µM (inactive) | 21.9 µM (inactive) | 21.5 µM (inactive) | 55.8 µM (inactive) |
| O=C(CSc1nnc(Cc2ccccc2)o1)Nc1ccc([N+](=O)[O-])cc1 | > 100 µM (inactive) | > 100 µM (inactive) | > 100 µM (inactive) | – | 78.2 µM (inactive) | – | > 100 µM (inactive) | 22.4 µM (inactive) | – |
| CS/C(=C(\S)c1ccccc1)c1ccccc1 | > 100 µM (inactive) | > 100 µM (inactive) | > 100 µM (inactive) | > 100 µM (inactive) | > 100 µM (inactive) | > 100 µM (inactive) | > 31.6 µM (inactive) | > 100 µM (inactive) | > 100 µM (inactive) |
